According to patent US9255257B2, “PmST1 mutants for chemoenzymatic synthesis of sialyl lewis X compounds” (THE REGENTS OF THE UNIVERSITY OF CALIFORNIA, priority 2011, dated 2016):

How the values were obtained:
[1] = biological target: T1, Pasteurella multocida PmST1 mutant M144D of SEQ ID NO: 13 (M120D of Δ24PmST1, SEQ ID NO: 3) (Pasteurella multocida, UniProt Q15KI8, M144D); assay: α2-3-sialyltransferase activity, Le^xβMU as acceptor; type: biochemical; details: apparent, acceptor, CMP-Neu5Ac 1 mM, CAPSO pH 9.5, 37° C.
Procedure: (§1) Site-directed mutagenesis, expression and purification of PmST1 mutants. Site-directed mutagenesis was performed using the QuikChange multi-site-directed mutagenesis kit from Stratagene according to the manufacturer's protocol. The primers used were 5′-[…]-3′ (SEQ ID NO:35) for M144D; 5′-[…]a[…] -3′ (SEQ ID NO:36) for M144H; 5′-[…]-3′ (SEQ ID NO:37) for A35D; and 5′-[…]-3′ (SEQ ID NO:38) for A35H. The expression and purification of the mutants were performed as previously described for the WT PmST1 .
(§2) Kinetics of the α2-3-sialyltransferase activity of PmST1 mutants by HPLC analysis. With LacβMU as the acceptor substrate, the reactions were performed in duplicate at 37° C. for 10 min (M144D) or 4 min (M144H) in a reaction mixture (10 μL) containing Tris-HCl (100 mM, pH 8.5), an enzyme (5 μg mL^−1), and different concentrations (0.2, 0.5, 1.0, 2.0, and 5.0 mM) of LacβMU with a fixed concentration (1 mM) of CMP-Neu5Ac or different concentrations (0.2, 0.5, 1.0, 2.0, 5.0, and 10.0 mM) of CMP-Neu5Ac with a fixed concentration (1 mM) of LacβMU. With Le^xβMU as the acceptor substrate, the reactions were carried out in duplicate at 37° C. for 9 min (M144D) or 10 min (M144H) in a reaction mixture (10 μL) containing CAPSO (100 mM, pH 9.5), an enzyme (M144D, 39 μg mL^−1 or M144H, 5 μg mL^−), and various concentrations of Le^xβMU (1.0, 5.0, 10.0, 15.0, 25.0, and 35.0 mM) with a fixed concentration (1 mM) of CMP-Neu5Ac or various concentrations (0.2, 0.5, 1.0, 2.0, 5.0, 10.0, 20.0, and 40.0 mM) of CMP-Neu5Ac with a fixed concentration (1 mM) of Le^xβMU. Reactions were stopped by adding 10 μL of pre-chilled ethanol. The mixtures were incubated on ice for 30 min and centrifuged at 13,000 rpm for 5 min. The supernatants were diluted with 25% acetonitrile and kept on ice until aliquots of 8 μL were injected and analyzed by the Shimadzu LC-6AD system equipped with a membrane on-line degasser, a temperature control unit, and a fluorescence detector (Shimadzu RF-10AXL). A reverse-phase Premier C18 column (250×4.6 mm i.d., 5 μm particle size, Shimadzu) protected with a C18 guard column cartridge was used. The mobile phase was 25% acetonitrile. The fluorophore (MU)-labeled compounds were detected by excitation at 325 nm and emission at 372 nm. The apparent kinetic parameters were obtained by fitting the experimental data (the average values of duplicate assay results) into the Michaelis-Menten equation using Grafit 5.0.

[2] = biological target: T2, Pasteurella multocida PmST1 mutant M144H of SEQ ID NO: 13 (M120H of Δ24PmST1, SEQ ID NO: 5) (Pasteurella multocida, UniProt Q15KI8, M144H); assay: as above; type: biochemical; details: apparent, acceptor, CMP-Neu5Ac 1 mM, CAPSO pH 9.5, 37° C.
Procedure: as §1, §2

[3] = biological target: Pasteurella multocida PmST1 mutant R313Y of SEQ ID NO: 13 (R289Y of Δ24PmST1, SEQ ID NO: 9) (Pasteurella multocida, UniProt Q15KI8, R313Y); assay: α2-3-sialidase activity, Neu5Acα2-3LacβMU as substrate; type: biochemical; details: apparent, MES pH 5.5, 37° C., 25 min
Procedure: (§3) Site-directed mutagenesis. Site-directed mutagenesis was carried out using the QuikChange multi-site-directed mutagenesis kit from Stratagene according to the manufacturer's protocol. The primers used were 5′-[…] -3′ (SEQ ID NO:32) for E271F and 5′-[…]-3′ (SEQ ID NO:33) for R313Y. The sites of mutations are underlined.
(§4) Protein Expression and Purification. The plasmids containing the mutant genes were transformed into E. coli BL21 (DE3). The E. coli cells were cultured in LB-rich media (10 g L^−1 tryptone, 5 g L^−1 yeast extract, and 10 g L^−1 NaCl) supplemented with ampicillin (100 μg mL^−1). Overexpression of the mutant proteins was achieved by adding 0.1 mM of isopropyl-1-thio-β-D-galactopyranoside (IPTG) to the E. coli culture when its OD600 nm reached 0.8. The incubation of the induced culture was performed at 37° C. for 3 h with vigorous shaking at 250 rpm in a C25KC incubator shaker (New Brunswick Scientific, Edison, N.J.).
(§5) His6 (SEQ ID NO:34) tagged mutant proteins were purified from the cell lysate. To obtain the cell lysate, the cell pellet harvested by centrifugation at 4000 rpm for 2 h was resuspended in 20 mL (for cells obtained from one liter culture) of lysis buffer (pH 8.0, 100 mM Tris-HCl containing 0.1% Triton X-100). To lyse the cells, lysozyme (50 μg mL^−1) and DNaseI (3 μg mL^−1) were then added to the resuspended cells followed by shaking at 37° C. for 60 min. The cell lysate was obtained as the supernatant after centrifugation at 11,000 rpm for 20 min. […]
(§6) All the sialidase and α2-3-sialyltransferase assays were performed in an HPLC system. […] After necessary dilutions were performed to adjust the concentrations of the fluorescent-labeled compounds, the samples were then kept on ice until aliquots of 8 μL were injected and analyzed by a Shimadzu LC-6AD system equipped with a membrane on-line degasser, a temperature control unit, and a fluorescence detector (Shimadzu RF-10AXL). […] The fluorescent compounds LacβMU and Neu5Acα2-3LacβMU were detected by excitation at 325 nm and emission at 372 nm.

[4] = biological target: Pasteurella multocida PmST1 double mutant E271F/R313Y of SEQ ID NO: 13 (E247F/R289Y of Δ24PmST1, SEQ ID NO: 11) (Pasteurella multocida, UniProt Q15KI8, E271F/R313Y); assay: as above; type: biochemical; details: apparent, MES pH 5.5, 37° C., 20 min
Procedure: as §3, §4, §5, §6

[5] = biological target: Pasteurella multocida PmST1 mutant E271F of SEQ ID NO: 13 (E247F of Δ24PmST1, SEQ ID NO: 7) (Pasteurella multocida, UniProt Q15KI8, E271F); assay: as above; type: biochemical; details: apparent, MES pH 5.5, 37° C., 1 min
Procedure: as §3, §4, §5, §6

[6] = biological target: Pasteurella multocida α2-3-sialyltransferase 1 (PmST1), wild type (WT), SEQ ID NO: 13 (Pasteurella multocida, UniProt Q15KI8); details: apparent, α2-3-sialidase; cited from earlier work
[7] = biological target: Pasteurella multocida PmST1 mutant D141A (Pasteurella multocida, UniProt Q15KI8, D141A); assay: α2-3-sialidase activity, Neu5Acα2-3LacβMU as substrate; type: biochemical; parameters: previously obtained mutant (Ni et al. 2006); details: apparent, MES pH 5.5, 37° C., 60 min
Procedure: (§7) Kinetic Assays. […] The apparent kinetic parameters were obtained by fitting the experimental data (the average values of duplicate assay results) into the Michaelis-Menten equation using Grafit 5.0.
(§8) All the sialidase and α2-3-sialyltransferase assays were performed in an HPLC system. Reactions were stopped by adding 10 μL of ethanol. After necessary dilutions were performed to adjust the concentrations of the fluorescent-labeled compounds, the samples were then kept on ice until aliquots of 8 μL were injected and analyzed by a Shimadzu LC-6AD system equipped with a membrane on-line degasser, a temperature control unit, and a fluorescence detector (Shimadzu RF-10AXL). A reverse-phase Premier C18 column (250×4.6 mm i.d., 5 μm particle size, Shimadzu) protected with a C18 guard column cartridge was used. The mobile phase was 25% acetonitrile. The fluorescent compounds LacβMU and Neu5Acα2-3LacβMU were detected by excitation at 325 nm and emission at 372 nm.

[8] = biological target: Pasteurella multocida PmST1 mutant H311A (Pasteurella multocida, UniProt Q15KI8, H311A); assay: as above; type: biochemical; parameters: previously obtained mutant (Ni et al. 2006); details: result in words
Procedure: as §7, §8

[9] = biological target: T1, Pasteurella multocida PmST1 mutant M144D of SEQ ID NO: 13 (M120D of Δ24PmST1, SEQ ID NO: 3); assay: as above; type: biochemical; details: apparent, MES pH 5.5, 37° C., 60 min
Procedure: as §1
(§9) Kinetics of the α2-3-sialidase activity of PmST1 mutants. The reactions were performed in duplicate in a total volume of 10 μL at 37° C. for 60 min (M144D) or 15 min (M144H) in MES buffer (100 mM, pH 5.5) containing Neu5Acα2-3LacβMU (0.4, 1, 2, 4, 10, 20, 40 and 60 mM) and an enzyme (M144H, 1.36 mg mL^−1 or M144D, 1.05 mg mL^−1). Sample treatment after the reaction and analysis were carried out by HPLC similar to that described above for the α2-3-sialyltransferase assays.

[10] = biological target: T2, Pasteurella multocida PmST1 mutant M144H of SEQ ID NO: 13 (M120H of Δ24PmST1, SEQ ID NO: 5); assay: as above; type: biochemical; details: apparent, MES pH 5.5, 37° C., 15 min
Procedure: as §1, §9

[11] = system: CC(=O)N[C@H]1[C@H]([C@H](O)[C@H](O)CO)O[C@@](O[C@H]2[C@@H](O)[C@@H](CO)O[C@@H](O[C@H]3[C@H](O)[C@@H](O)[C@H](Oc4ccc5c(C)cc(=O)oc5c4)O[C@@H]3CO)[C@@H]2O)(C(=O)O)C[C@@H]1O; assay: as above; type: biochemical, Pasteurella multocida; details: other: apparent, D141A, MES pH 5.5, 37° C., 60 min
Procedure: as §7, §8

[12] = system: CC(=O)N[C@H]1[C@H]([C@H](O)[C@H](O)CO)O[C@](OP(=O)(O)OC[C@H]2O[C@@H](n3ccc(N)nc3=O)[C@H](O)[C@@H]2O)(C(=O)O)C[C@@H]1O; assay: purified protein, by the assay type; details: other: apparent, donor hydrolysis, D141A, Tris-HCl pH 8.5, 37° C., 40 min
Procedure: The reactions were stopped by adding 10 μL of pre-chilled ethanol. The mixtures were incubated on ice for 30 min and centrifuged at 13,000 rpm for 5 min. The supernatants were diluted with borate buffer (25 mM, pH 9.5) and aliquotes of 5 μL each were injected to a Beckman Coulter P/ACE™ MDQ Capillary Electrophoresis system equipped with a capillary (60 cm×75 μm i.d.) and monitored at 254 nm. The apparent kinetic parameters were obtained by fitting the experimental data (the average values of duplicate assay results) into the Michaelis-Menten equation using Grafit 5.0.

What does the source list for CC(=O)N[C@H]1[C@H](Oc2ccc3c(C)cc(=O)oc3c2)O[C@H](CO)[C@@H](O[C@@H]2O[C@H](CO)[C@H](O)[C@H](O)[C@H]2O)[C@@H]1O[C@@H]1O[C@@H](C)[C@@H](O)[C@@H](O)[C@@H]1O [Le^xβMU, 4-methylumbelliferyl β-Le^x]?
kcat (Le^xβMU) [1]: 4.0 ± 0.2 s⁻¹; kcat (Le^xβMU) [2]: 8.4 ± 0.3 s⁻¹

Which results are given for CC(=O)N[C@H]1[C@H]([C@H](O)[C@H](O)CO)O[C@@](O[C@H]2[C@@H](O)[C@@H](CO)O[C@@H](O[C@H]3[C@H](O)[C@@H](O)[C@H](Oc4ccc5c(C)cc(=O)oc5c4)O[C@@H]3CO)[C@@H]2O)(C(=O)O)C[C@@H]1O [Neu5Acα2-3LacβMU]?
kcat [3]: 0.18 ± 0.01 s⁻¹; kcat [4]: 0.83 ± 0.08 s⁻¹; kcat [5]: 0.92 ± 0.04 s⁻¹; Km [6]: 24 mM; kcat [7]: (1.9 ± 0.1) × 10^−2 s^−1; kinetics of the α2-3-sialidase activity [8]: too low to obtain the kinetic data; kcat [9]: (3.5 ± 0.1) × 10^−2 s^−1; kcat [10]: (2.7 ± 0.2) × 10^−2 s^−1

Which Km [11] does the source give for “Pasteurella multocida PmST1 mutant D141A (Pasteurella multocida; D141A)” here?
Its Km is 15 ± 1 mM.

What about the Km [12] of the same molecule?
Its Km is 1.4 ± 0.2 mM.
